According to patent publication US9617244B2, “Antibacterial quinoline derivatives” (JANSSEN PHARMACEUTICA NV, priority 2012, dated 2017):
Converted amounts (≈) assume the structure as drawn.

How the values were obtained:
[1] = test system: Staphylococcus aureus (ATCC29213); assay: In-vitro anti-bacterial activity, microtitre plate assay, IC90 determination (non-mycobacterial strains); format: cell-based; conditions: 90% inhibitory concentration for bacterial growth, resazurin fluorescence; for IC90 STA B29213: 24 hours; for IC90: Staphylococcus aureus, ATCC29213, 24 h, read-out: IC90 STA B29213
Procedure: D.2. In-Vitro Method for Testing Compounds for Anti-Bacterial Activity Against Various Non-Mycobacterial Strains
Preparation of Bacterial Suspensions for Susceptibility Testing:
The bacteria used in this study were grown overnight in flasks containing 100 ml Mueller-Hinton Broth (Becton Dickinson—cat. no. 275730) in sterile de-ionized water, with shaking, at 37° C. Stocks (0.5 ml/tube) were stored at −70° C. until use. Bacteria titrations were performed in microtiter plates to detect the TCID50, in which TCID50 represents the dilution that gives rise to bacterial growth in 50% of inoculated cultures. In general, an inoculum level of approximately 100 TCID50 was used for susceptibility testing.
Anti Bacterial Susceptibility Testing: IC90 Determination
Flat-bottom, sterile 96-well plastic microtiter plates were filled with 180 μl of sterile deionized water, supplemented with 0.25% BSA. Subsequently, stock solutions (7.8× final test concentration) of compounds were added in 45 μl volumes in column 2 Serial five-fold dilutions (45 μl in 180 μl) were made directly in the microtiter plates from column 2 to reach column 11. Untreated control samples with (column 1) and without (column 12) inoculum were included in each microtiter plate. Depending on the bacteria type, approximately 10 to 60 CFU per well of bacteria inoculum (100 TCID50), in a volume of 100 μl in 2.8× Mueller-Hinton broth medium, was added to the rows A to H, except column 12. The same volume of broth medium without inoculum was added to column 12 in row A to H. The cultures were incubated at 37° C. for 24 hours under a normal atmosphere (incubator with open air valve and continuous ventilation). At the end of incubation, one day after inoculation, the bacterial growth was quantitated fluorometrically. Therefore resazurin (0.6 mg/ml) was added in a volume of 20 μl to all wells 3 hours after inoculation, and the plates were re-incubated overnight. A change in colour from blue to pink indicated the growth of bacteria. The fluorescence was read in a computer-controlled fluorometer (Cytofluor Biosearch) at an excitation wavelength of 530 nm and an emission wavelength of 590 nm. The % growth inhibition achieved by the compounds was calculated according to standard methods. The IC90 (expressed in μg/ml) was defined as the 90% inhibitory concentration for bacterial growth.

[2] = test system: Mycobacterium smegmatis (ATCC607); assay: In-vitro anti-bacterial activity against strain M. Smegmatis ATCC607; format: cell-based; conditions: 90% inhibitory concentration for bacterial growth, Alamar Blue fluorescence; for IC90 MSM 607: 48 hours; for IC90: Mycolicibacterium smegmatis, ATCC607, 48 h, read-out: IC90 MSM 607
Procedure: D.1. In-Vitro Method for Testing Compounds for Anti-Bacterial Activity Against Strain M. Smegmatis ATCC607
Flat-bottom, sterile 96-well plastic microtiter plates were filled with 180 μl of sterile deionized water, supplemented with 0.25% BSA. Subsequently, stock solutions (7.8× final test concentration) of compounds were added in 45 μl volumes to a series of duplicate wells in column 2 so as to allow evaluation of their effects on bacterial growth. Serial five-fold dilutions (45 μl in 180 μl) were made directly in the microtiter plates from column 2 to 11 using a customised robot system (Zymark Corp., Hopkinton, Mass.). Pipette tips were changed after every 3 dilutions to minimize pipetting errors with high hydrophobic compounds. Untreated control samples with (column 1) and without (column 12) inoculum were included in each microtiter plate. Approximately 250 CFU per well of bacteria inoculum, in a volume of 100 μl in 2.8× Mueller-Hinton broth medium, was added to the rows A to H, except column 12. The same volume of broth medium without inoculum was added to column 12 in row A to H. The cultures were incubated at 37° C. for 48 hours in a humidified 5% CO2 atmosphere (incubator with open air valve and continuous ventilation). At the end of incubation, two days after inoculation, the bacterial growth was quantitated fluorometrically. Therefore Alamar Blue (10×) was added to all wells in a volume of 20 μl and plates were incubated for another 2 hours at […]
The fluorescence was read in a computer-controlled fluorometer (Cytofluor, Biosearch) at an excitation wavelength of 530 nm and an emission wavelength of 590 nm (gain 30). The percentage growth inhibition achieved by the compounds was calculated according to standard methods and expressed as IC90 (μg/ml) which defines the 90% inhibitory concentration for bacterial growth.

Compound | IC90 STA B29213 [1] [µg/mL] | IC90 MSM 607 [2] [µg/mL] | IC90 [1] [µg/mL] | IC90 [2] [µg/mL]
CS(=O)(=O)c1ccc2[nH]c(=O)c(C(c3ccc(Cl)cc3)C3(O)CCNC(Cc4ccc(F)cc4)C3)cc2c1 (stereo not shown) [Compound 57] | 3.50 (≈ 6.31 µM) | 3.50 (≈ 6.31 µM) | – | –
COc1nc2ccc(S(C)(=O)=O)cc2cc1C(c1cccc(Cl)c1)C1(O)CCNC(Cc2ccc(F)cc2F)C1 (stereo not shown) [Compound 326] | 5.37 (≈ 9.15 µM) | 4.78 (≈ 8.14 µM) | – | –
COc1nc2ccc(SC(C)C)cc2cc1C(c1ccc(Cl)cc1)C1(O)CCNC(Cc2ccccc2)C1 (stereo not shown) [Compound 383] | 3.45 (≈ 6.31 µM) | 2.74 (≈ 5.01 µM) | – | –
COc1nc2ccc(SC)cc2cc1C(c1ccccc1)C1(O)CCNC(c2ccc(F)cc2C)C1 (stereo not shown) [Compound 169] | 4.96 (≈ 9.87 µM) | 3.94 (≈ 7.84 µM) | – | –
CSc1ccc2[nH]c(=O)c(C(c3ccc(Cl)cc3)C3(O)CCNC(c4ccc(F)cc4C)C3)cc2c1 (stereo not shown) [Compound 278] | 1.77 (≈ 3.38 µM) | 1.40 (≈ 2.68 µM) | – | –
O=c1[nH]c2ccc(Br)cc2cc1C(c1ccc(Cl)cc1)C1(O)CCNC(Cc2ccc(F)cc2)C1 (stereo not shown) [Compound 364] | 3.74 (≈ 6.73 µM) | 2.97 (≈ 5.34 µM) | – | –
Cc1cc(F)ccc1C1CC(O)(C(c2cccc(Cl)c2)c2cc3cc(Br)ccc3[nH]c2=O)CCN1 (stereo not shown) [Compound 138] | 2.35 (≈ 4.23 µM) | 1.18 (≈ 2.12 µM) | – | –
Cc1cc(F)ccc1C1CC(O)(C(c2ccccc2)c2cc3cc(Br)ccc3[nH]c2=O)CCN1 (stereo not shown) [Compound 192] | 7.00 (≈ 13.4 µM) | 13.96 (≈ 26.8 µM) | – | –
COc1nc2ccc(F)cc2cc1C(c1ccc(Cl)cc1)C1(O)CCNC(c2ccc(F)cc2C)C1 (stereo not shown) [Compound 330] | 2.08 (≈ 4.09 µM) | 1.04 (≈ 2.04 µM) | – | –
CSc1ccc2[nH]c(=O)c(C(c3cccc(Cl)c3)C3(O)CCNC(Cc4ccc(F)cc4F)C3)cc2c1 (stereo not shown) [Compound 311] | 7.24 (≈ 13.4 µM) | 3.63 (≈ 6.71 µM) | – | –
O=c1[nH]c2ccc(Br)cc2cc1C(c1ccc(Cl)cc1)C1(O)CCNC(Cc2ccc(F)cc2F)C1 (stereo not shown) [Compound 322] | 2.43 (≈ 4.23 µM) | 3.85 (≈ 6.71 µM) | – | –
COc1nc2ccc(Br)cc2cc1C(n1cccn1)C1(O)CCNC(Cc2ccccc2)C1 (stereo not shown) [Compound 429] | – | – | 7.72 (≈ 15.2 µM) | 3.87 (≈ 7.63 µM)
Cc1cc(F)ccc1C1CC(O)(C(c2ccc(Cl)cc2)c2cc3cc(S(C)(=O)=O)ccc3[nH]c2=O)CCN1 (stereo not shown) [Compound 222] | >14.78 | >14.78 | – | –
CSc1ccc2[nH]c(=O)c(C(c3ccc(Cl)cc3)C3(O)CCNC(Cc4ccc(F)cc4)C3)cc2c1 (stereo not shown) [Compound 281] | 3.53 (≈ 6.75 µM) | – | – | 7.03 (≈ 13.4 µM)
Cc1cc(F)ccc1C1CC(O)(C(c2cccc(Cl)c2)c2cc3cc(S(C)(=O)=O)ccc3[nH]c2=O)CCN1 (stereo not shown) [Compound 272] | >14.78 | >14.78 | – | –
COc1nc2ccc(Br)cc2cc1C(c1cccc(Cl)c1)C1(O)CCNC(c2ccc(F)cc2C)C1 (stereo not shown) [Compound 152] | 2.78 (≈ 4.88 µM) | 1.76 (≈ 3.09 µM) | – | –
CS(=O)(=O)c1ccc2[nH]c(=O)c(C(c3ccc(Cl)cc3)C3(O)CCNC(Cc4ccccc4)C3)cc2c1 (stereo not shown) [Compound 120] | 6.76 (≈ 12.6 µM) | 5.37 (≈ 10 µM) | – | –
COc1nc2ccc(Cl)cc2cc1C(c1ccc(Cl)cc1)C1(O)CCNCC1C (stereo not shown) [Compound 422] | 7.67 (≈ 17.8 µM) | 8.61 (≈ 20 µM) | – | –
CSc1ccc2[nH]c(=O)c(C(c3cccc(Cl)c3)C3(O)CCNC(c4ccc(F)cc4C)C3)cc2c1 (stereo not shown) [Compound 177] | 1.76 (≈ 3.36 µM) | 2.78 (≈ 5.31 µM) | – | –

Compound | IC90 STA B29213 [1] [µg/mL] | IC90 MSM 607 [2] [µg/mL] | IC90 [1] [µg/mL] | IC90 [2] [µg/mL]
COc1nc2ccccc2cc1C(c1ccccc1)C1(O)CCNC(Cc2ccccc2)C1 (stereo not shown) [Compound 400] | >12.47 | >12.47 | – | –
COc1nc2ccc(S(C)(=O)=O)cc2cc1C(c1ccc(Cl)cc1)C1(O)CCNC(Cc2ccc(F)cc2F)C1 (stereo not shown) [Compound 306] | 4.70 (≈ 8.01 µM) | 4.70 (≈ 8.01 µM) | – | –
O=c1[nH]c2ccc(Br)cc2cc1C(c1ccc(Cl)cc1)C1(O)CCNC(CC2CCCCC2)C1 (stereo not shown) [Compound 255] | 3.65 (≈ 6.71 µM) | 7.28 (≈ 13.4 µM) | – | –
O=c1[nH]c2ccc(Br)cc2cc1C(c1ccc(Cl)cc1)C1(O)CCNC(Cc2ccc(F)cc2)C1 (stereo not shown) [Compound 365] | 3.74 (≈ 6.73 µM) | 3.74 (≈ 6.73 µM) | – | –
CSc1ccc2[nH]c(=O)c(C(c3ccc(Cl)cc3)C3(O)CCNC(CC4CCCCC4)C3)cc2c1 (stereo not shown) [Compound 298] | 6.88 (≈ 13.5 µM) | 6.88 (≈ 13.5 µM) | – | –
CSc1ccc2[nH]c(=O)c(C(c3ccc(Cl)cc3)C3(O)CCNC(c4ccccc4)C3)cc2c1 (stereo not shown) [Compound 233] | 1.67 (≈ 3.4 µM) | 1.32 (≈ 2.69 µM) | – | –
COc1nc2ccc(Cl)cc2cc1C(c1ccc(Cl)cc1)C1(O)CCNC(Cc2ccc(F)cc2)C1 (stereo not shown) [Compound 346] | 2.13 (≈ 4.05 µM) | 1.69 (≈ 3.22 µM) | – | –
Cc1cc(F)ccc1C1CC(O)(C(c2ccc(Cl)cc2)c2cc3cc(Br)ccc3[nH]c2=O)CCN1 (stereo not shown) [Compound 107] | – | 2.65 (≈ 4.77 µM) | 1.87 (≈ 3.36 µM) | –
COc1nc2ccc(Cl)cc2cc1C(c1ccc(Cl)cc1)C1(O)CCNCC1c1ccccc1 (stereo not shown) [Compound 411] | 4.10 (≈ 8.31 µM) | 6.50 (≈ 13.2 µM) | – | –
COc1nc2ccc(S(C)(=O)=O)cc2cc1C(c1ccc(Cl)cc1)C1(O)CCNC(Cc2ccc(F)cc2F)C1 (stereo not shown) [Compound 305] | 18.76 (≈ 32 µM) | 18.76 (≈ 32 µM) | – | –
COc1nc2ccc(Br)cc2cc1C(c1ccc(Cl)cc1)C1(O)CCNC(Cc2ccc(F)cc2F)C1 (stereo not shown) [Compound 319] | 2.40 (≈ 4.08 µM) | 2.40 (≈ 4.08 µM) | – | –
COc1nc2ccc(Br)cc2cc1C(c1ccc(Cl)cc1)C1(O)CCNC(Cc2ccc(F)cc2F)C1 (stereo not shown) [Compound 313] | – | 1.91 (≈ 3.25 µM) | 2.4 (≈ 4.08 µM) | –
COc1nc2ccc(Cl)cc2cc1C(c1ccc(S(C)(=O)=O)cc1)C1(O)CCNC(c2ccc(F)cc2C)C1 (stereo not shown) [Compound 368] | 17.71 (≈ 31.1 µM) | 14.06 (≈ 24.7 µM) | – | –
Cc1cc(F)ccc1C1CC(O)(C(c2ccccc2)c2cc3cc(S(C)(=O)=O)ccc3[nH]c2=O)CCN1 (stereo not shown) [Compound 264] | >13.88 | 3.49 (≈ 6.7 µM) | – | –
O=c1[nH]c2ccc(Br)cc2cc1C(c1ccc(Cl)cc1)C1(O)CCNCC1Cc1cccc(F)c1 (stereo not shown) [Compound 229] | 1.86 (≈ 3.35 µM) | 3.31 (≈ 5.95 µM) | – | –
COc1nc2ccccc2cc1C(c1ccccc1)C1(O)CCNC(c2ccc(F)cc2C)C1 (stereo not shown) [Compound 416] | 9.25 (≈ 20.3 µM) | 9.25 (≈ 20.3 µM) | – | –
COc1nc2ccc(Cl)cc2cc1C(c1ccc(Cl)cc1)C1(O)CCNC(Cc2ccc(F)cc2)C1 (stereo not shown) [Compound 347] | 4.27 (≈ 8.13 µM) | 1.70 (≈ 3.24 µM) | – | –
Cc1cc(F)ccc1C1CC(O)(C(c2ccccc2)c2cc3cc(S(C)(=O)=O)ccc3[nH]c2=O)CCN1 (stereo not shown) [Compound 237] | – | 11.06 (≈ 21.2 µM) | > 13.9 | –
CS(=O)(=O)c1ccc2[nH]c(=O)c(C(c3ccc(Cl)cc3)C3(O)CCNC(Cc4ccc(F)c(F)c4)C3)cc2c1 (stereo not shown) [Compound 215] | 13.66 (≈ 23.8 µM) | 17.19 (≈ 30 µM) | – | –
